Test results as given in patent US11291756B2, “Acoustic separation for bioprocessing” (THE CHARLES STARK DRAPER LABORATORY, INC., priority 2016, dated 2022).

Assays:
Type in all cases: cell-based
platelets [1] = experiment: Platelet aggregate size produced by ADP; conditions: 10 μM ADP
platelets [2] = experiment: Acoustic separation of platelets from lymphocytes in a blood sample pretreated with a platelet activator; conditions: adenosine diphosphate 2-50 μM, incubated 10-20 minutes
Protocol: A blood sample comprising lymphocytes and platelets was subjected to acoustic energy, generally as described above. Prior to flowing the blood sample through a microfluidic separation channel, the blood sample was pretreated by diluting with an additive comprising a platelet activator, adenosine diphosphate. Adenosine diphosphate was added at a concentration of 2-50 μM. The samples were incubated for 10-20 minutes before starting the acoustic separation.

platelets [3] = experiment: Acoustic separation of platelets from lymphocytes in blood buffy coat samples pretreated with a platelet activator
Protocol: Blood buffy coat samples from 3 donors (comprising lymphocytes and platelets) were subjected to acoustic energy, generally as described above. Prior to flowing the blood buffy coat samples through a microfluidic separation channel, the blood buffy coat samples were pretreated. Experimental samples were treated with 8 μM adenosine diphosphate (ADP) in buffer and control samples were treated with buffer only to a final dilution of approximately 1:3 buffy coat:buffer (about 10^9 cells/ml). The samples were incubated for 5 min before separation. The samples were flowed at 0.1 ml/min through a single polystyrene microchannel mounted on an oscillator using the methods described herein. The acoustic force displaced larger and more dense cells and platelet cell aggregates toward a center outlet (waste) while side outlets collected the lymphocyte-enriched product, generally as shown in FIG. 15. The products were compared to the input solution using both a hematology analyzer (Sysmex Corporation, Kobe, Hyogo Prefecture, Japan) to count cells and ELISA of the platelet-specific glycoprotein IIb/IIIa.

**Q.** How did the “diameter of platelet aggregates” value (platelets [1]) turn out when `Nc1ncnc2c1ncn2[C@@H]1O[C@H](COP(=O)(O)OP(=O)(O)O)[C@@H](O)[C@H]1O` [ADP, adenosine diphosphate] was run?
**A.** about 10 μm

**Q.** What about the “response of platelets to the acoustic field” value (platelets [2]) of the same compound?
**A.** responded more strongly to the acoustic field than individual platelets

**Q.** And the “platelet content by glycoprotein IIb/IIIa assay (ELISA)” value (platelets [3]; ADP 8 μM)?
**A.** significantly reduced platelet content

**Q.** And the “reduction of platelet count in the product versus control” value (platelets [3]; ADP 8 μM)?
**A.** nearly ten-fold

**Q.** And the “decrease of platelet count in the product compared to the starting material” value (platelets [3]; ADP 8 μM in buffer, 5 min incubation, buffy coat from 3 donors, hematology analyzer, buffer control 274% increase)?
**A.** 69%

**Q.** What about the hematocrit of product (platelets [3]; ADP 8 μM, depleted from 10%) of the same compound?
**A.** 4.5%

**Q.** And the “platelet depletion on increasing the concentration” value (platelets [3]; ADP 32 μM versus 8 μM)?
**A.** did not further improve platelet depletion

**Q.** And the “platelet contamination in the collected lymphocytes compared to controls” value (platelets [3]; ADP versus buffer-only controls)?
**A.** strongly reduced platelet contamination

**Q.** And the “increase of lymphocyte purity” value (platelets [3]; with or without ADP added, input 41% to output 84%)?
**A.** 104%

**Q.** And the lymphocyte output purity (platelets [3]; with or without ADP added, input purity 41%)?
**A.** 84 % WBC
